The values below are quoted from earlier work in patent US12516015B2 (AMALIVE LIMITED, priority 2009, dated 2026).

Molecules are shown by their SMILES.

Broadly, the pKa is the pH at which an ionisable group is half protonated. Consider `O=C(O)Cc1ccccc1` [phenyl acetic acid], for which the pKa is given as about 4.28.
